The values that follow come from patent US9309254B2, “Pyrimidinyl-diazospiro compounds” (CONVERGENCE PHARMACEUTICALS LIMITED, priority 2012, dated 2016).

Structures are written as SMILES. Where a name gives a salt, the structure may show the parent alone. Read-outs that look alike come from different tables or passages of the source.

The target of the test is T1, hNaV1.7 (Homo sapiens, UniProt Q15858).
T1 construct: expressed in transfected cells; host or cells: HEK293
Nature of the test: QPatch NaV1.7 assay. In kind it is cell-based. The note with it: HEK293-hNaV1.7 cells, QPatch16x. As for the experimental part: The compounds of the invention were tested in a QPatch NaV1.7 assay.
HEK293-hNaV1.7 cells were grown in DMEM-F12+10% FBS culture media at 37° C. At a confluency of 50-70% cells were dissociated from culture flasks & triturated to ensure unicellular cell suspension; cell density was measured & adjusted to 2-3×10^6 cells/ml. Recordings were obtained using QPatch16x. The external solution was (in mM): NaCl, 128; KCl, 5; MgCl2, 2; CaCl2, 2; Glucose, 30; HEPES, 15; pH 7.3, 305-315 mOsm. Following seal formation and whole-cell access using internal solution (containing in mM: CsF, 135; EGTA/CsOH, 1/5; HEPES 10; NaCl, 10; pH 7.3, 310-320mOsM), voltage pulse protocols were applied. Initially a steady state inactivation voltage protocol was used to determine the half-maximal voltage for steady state inactivation (V1/2 SSI). Two holding voltages were used to determine test drug inhibition: −90 mV, where most of the channels are in a closed state; and V1/2 SSI, where half of the channels are inactivated. Currents were elicited every 10 seconds by stepping to a membrane potential of 0 mV for 20 ms. Four-point cumulative concentration responses were derived by determining the peak current amplitude at each concentration of test drug over 120 second application. Curves were fitted with the Hill equation yielding pIC50 values at −90 mV and V1/2 SSI holding potentials.
On the technique in general: In patch-clamp work, channel activity is measured electrically.

The mark [1] stands for this setting: holding voltage V1/2 SSI, where half of the channels are inactivated, read-out: QP Nav1.7 SSI vhalf pIC50 (converted).
Setting [2] is: holding voltage −90 mV, where most of the channels are in a closed state, read-out: QP Nav1.7 - 90 mV pIC50 (converted).

T1 sequence (Q15858 whole entry): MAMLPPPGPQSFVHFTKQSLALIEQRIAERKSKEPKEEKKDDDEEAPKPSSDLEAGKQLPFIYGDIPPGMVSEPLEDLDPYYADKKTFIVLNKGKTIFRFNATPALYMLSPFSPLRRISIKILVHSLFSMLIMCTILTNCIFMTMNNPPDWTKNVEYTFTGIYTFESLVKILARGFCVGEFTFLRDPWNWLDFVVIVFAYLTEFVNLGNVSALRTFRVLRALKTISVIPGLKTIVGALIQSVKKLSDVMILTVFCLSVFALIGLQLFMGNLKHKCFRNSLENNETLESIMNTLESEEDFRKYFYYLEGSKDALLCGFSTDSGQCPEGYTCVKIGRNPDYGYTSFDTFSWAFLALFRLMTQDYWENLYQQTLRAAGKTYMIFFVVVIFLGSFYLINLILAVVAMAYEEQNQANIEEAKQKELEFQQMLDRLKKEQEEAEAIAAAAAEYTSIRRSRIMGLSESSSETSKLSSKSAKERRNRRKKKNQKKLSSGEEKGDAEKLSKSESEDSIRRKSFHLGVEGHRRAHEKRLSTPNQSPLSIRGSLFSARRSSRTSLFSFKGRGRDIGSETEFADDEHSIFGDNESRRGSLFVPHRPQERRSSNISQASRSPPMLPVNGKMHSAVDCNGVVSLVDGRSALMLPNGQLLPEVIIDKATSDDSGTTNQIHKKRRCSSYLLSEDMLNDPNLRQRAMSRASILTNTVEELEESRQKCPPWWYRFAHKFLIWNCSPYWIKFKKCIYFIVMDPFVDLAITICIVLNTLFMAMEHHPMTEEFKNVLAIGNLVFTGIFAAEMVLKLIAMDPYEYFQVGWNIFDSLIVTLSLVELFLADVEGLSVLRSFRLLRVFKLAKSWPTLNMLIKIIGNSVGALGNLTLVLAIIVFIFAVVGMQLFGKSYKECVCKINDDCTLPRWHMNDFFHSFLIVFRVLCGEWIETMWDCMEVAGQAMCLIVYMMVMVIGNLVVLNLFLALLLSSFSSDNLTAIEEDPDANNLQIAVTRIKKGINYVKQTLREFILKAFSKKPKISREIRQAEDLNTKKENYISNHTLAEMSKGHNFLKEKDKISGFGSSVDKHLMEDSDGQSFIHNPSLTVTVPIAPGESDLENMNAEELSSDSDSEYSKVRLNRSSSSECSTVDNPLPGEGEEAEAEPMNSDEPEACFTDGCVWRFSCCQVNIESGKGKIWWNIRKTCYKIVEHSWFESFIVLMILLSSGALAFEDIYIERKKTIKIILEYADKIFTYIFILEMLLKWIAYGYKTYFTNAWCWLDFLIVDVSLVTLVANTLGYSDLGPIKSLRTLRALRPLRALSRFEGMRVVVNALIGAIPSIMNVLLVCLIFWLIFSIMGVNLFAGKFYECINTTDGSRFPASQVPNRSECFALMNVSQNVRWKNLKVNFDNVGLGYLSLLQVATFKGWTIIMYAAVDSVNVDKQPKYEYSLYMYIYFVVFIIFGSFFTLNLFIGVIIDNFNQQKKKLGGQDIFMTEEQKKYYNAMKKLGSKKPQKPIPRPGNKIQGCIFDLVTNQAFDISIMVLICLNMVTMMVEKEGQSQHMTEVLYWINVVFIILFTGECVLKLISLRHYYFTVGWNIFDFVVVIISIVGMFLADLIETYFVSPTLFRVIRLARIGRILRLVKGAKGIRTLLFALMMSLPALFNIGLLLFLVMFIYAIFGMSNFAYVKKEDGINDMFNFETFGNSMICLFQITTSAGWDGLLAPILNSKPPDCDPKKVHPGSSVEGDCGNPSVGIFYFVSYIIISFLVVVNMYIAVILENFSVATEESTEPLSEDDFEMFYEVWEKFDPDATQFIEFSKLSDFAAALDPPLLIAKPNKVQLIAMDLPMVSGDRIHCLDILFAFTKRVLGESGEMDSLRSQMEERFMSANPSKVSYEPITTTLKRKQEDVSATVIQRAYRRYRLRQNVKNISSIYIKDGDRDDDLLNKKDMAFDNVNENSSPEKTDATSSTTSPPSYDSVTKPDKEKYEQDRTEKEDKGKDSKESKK

As for `Cc1cc(-c2ccc(C(F)(F)F)cc2)nc([C@@H]2CC[C@@]3(CCN(C)C3=O)N2)n1` (single isomer, unassigned) [Example 22, hydrochloride], the IC50 under setting [1] was 63.1 µM and the IC50 under setting [2] was 7940 µM.

For `CN1CC[C@@]2(CC[C@H](c3nccc(-c4ccc(C(F)(F)F)cc4)n3)N2)C1=O` [Example 1, (2R,5S)-7-Methyl-2-[4-[4-(trifluoromethyl)phenyl]pyrimidin-2-yl]-1,7-diazaspiro[4.4]nonan-6-one hydrochloride], the IC50 is 10 µM under setting [1] and 126 µM under setting [2].

As to `CN1CC[C@@]2(CC[C@@H](c3nccc(-c4ccc(C(F)(F)F)cc4)n3)N2)C1=O` [Example 2, (2S,5S)-7-Methyl-2-[4-[4-(trifluoromethyl)phenyl]pyrimidin-2-yl]-1,7-diazaspiro[4.4]nonan-6-one hydrochloride], the IC50 by setting is: under setting [1], 63.1 µM; under setting [2], 398 µM.

With `CN1CC[C@]2(CC[C@@H](c3nccc(-c4ccc(C(F)(F)F)cc4)n3)N2)C1=O` [Example 3, (2S,5R)-7-Methyl-2-[4-[4-(trifluoromethyl)phenyl]pyrimidin-2-yl]-1,7-diazaspiro[4.4]nonan-6-one hydrochloride], the IC50 was 31.6 µM under setting [1] and 158 µM under setting [2].

As for `CN1CC[C@]2(CC[C@H](c3nccc(-c4ccc(C(F)(F)F)cc4)n3)N2)C1=O` [Example 4, (2R,5R)-7-Methyl-2-[4-[4-(trifluoromethyl)-phenyl]-pyrimidin-2-yl]-1,7-diazaspiro[4.4]nonan-6-one hydrochloride], the IC50 reads like this: under setting [1], 39.8 µM; under setting [2], 251 µM.

With `Cc1cc(-c2ccc(C(F)(F)F)cc2)nc([C@@H]2CC[C@]3(CCN(C)C3=O)N2)n1` [Example 5, (2S,5R)-7-Methyl-2-[4-methyl-6-[4-(trifluoromethyl)phenyl]pyrimidin-2-yl]-1,7-diazaspiro[4.4]nonan-6-one hydrochloride], the IC50 is, setting by setting: under setting [1], 100 µM; under setting [2], 79.4 µM.

For `Cc1cc(-c2ccc(C(F)(F)F)cc2)nc([C@H]2CC[C@]3(CCN(C)C3=O)N2)n1` [Example 6, (2R,5R)-7-Methyl-2-[4-methyl-6-[4-(trifluoromethyl)phenyl]pyrimidin-2-yl]-1,7-diazaspiro[4.4]nonan-6-one hydrochloride], the IC50 by setting is: under setting [1], 79.4 µM; under setting [2], 316 µM.

`Cc1cc(-c2ccc(C(F)(F)F)cc2)nc([C@H]2CC[C@@]3(CCN(C)C3=O)N2)n1.Cl` [Example 7, (2R,5S)-7-Methyl-2-[4-methyl-6-[4-(trifluoromethyl)-phenyl]pyrimidin-2-yl]-1,7-diazaspiro[4.4]nonan-6-one hydrochloride]: for the setting “holding voltage V1/2 SSI, where half of the channels are inactivated”, the “QP Nav1.7 SSI vhalf pIC50” value worked out at 5.7. Moreover, under setting [2], the IC50 is 126 µM.

Take `CCOc1ccc(F)c(-c2cc(C)nc([C@@H]3CC[C@]4(CCN(C)C4=O)N3)n2)c1` [Example 8, (2S,5R)-2-[4-(5-Ethoxy-2-fluoro-phenyl)-6-methyl-pyrimidin-2-yl]-7-methyl-1,7-diazaspiro[4.4]nonan-6-one hydrochloride]: the IC50 was 2.51 µM under setting [1] and 39.8 µM under setting [2].

With `CCOc1ccc(F)c(-c2cc(C)nc([C@H]3CC[C@]4(CCN(C)C4=O)N3)n2)c1` [Example 9, (2R,5R)-2-[4-(5-Ethoxy-2-fluoro-phenyl)-6-methyl-pyrimidin-2-yl]-7-methyl-1,7-diazaspiro[4.4]nonan-6-one hydrochloride], the IC50 runs as follows: under setting [1], 1.58 µM; under setting [2], 12.6 µM.

Consider `CCOc1ccc(F)c(-c2cc(C)nc([C@H]3CC[C@@]4(CCN(C)C4=O)N3)n2)c1` [Example 10, (2R,5S)-2-[4-(5-Ethoxy-2-fluoro-phenyl)-6-methyl-pyrimidin-2-yl]-7-methyl-1,7-diazaspiro[4.4]nonan-6-one hydrochloride], for which the IC50 runs as follows: under setting [1], 1.58 µM; under setting [2], 20 µM.

Take `CCOc1ccc(F)c(-c2cc(C)nc([C@@H]3CC[C@@]4(CCN(C)C4=O)N3)n2)c1` [Example 11, (2S,5S)-2-[4-(5-Ethoxy-2-fluoro-phenyl)-6-methyl-pyrimidin-2-yl]-7-methyl-1,7-diazaspiro[4.4]nonan-6-one hydrochloride]: the IC50 reads like this: under setting [1], 3.98 µM; under setting [2], 79.4 µM.

On to `CCOc1ccc(F)c(-c2cc(C)nc([C@H]3CC[C@]4(CCCNC4=O)N3)n2)c1` [Example 12, hydrochloride], for which the IC50 runs as follows: under setting [1], 2 µM; under setting [2], 20 µM.

With `CCOc1ccc(F)c(-c2cc(C)nc([C@@H]3CC[C@]4(CCCNC4=O)N3)n2)c1` [Example 13, hydrochloride], the IC50 under setting [1] is 1.58 µM and the IC50 under setting [2] is 7.94 µM.

In the case of `CCOc1ccc(F)c(-c2ccnc([C@H]3CC[C@]4(CCN(C)C4=O)N3)n2)c1` [Example 14, (2R,5R)-2-[4-(5-Ethoxy-2-fluoro-phenyl)pyrimidin-2-yl]-7-methyl-1,7-diazaspiro[4.4]nonan-6-one hydrochloride], the IC50 was 1.26 µM under setting [1] and 20 µM under setting [2].

With `CCOc1ccc(F)c(-c2ccnc([C@@H]3CC[C@]4(CCN(C)C4=O)N3)n2)c1` [Example 15, (2S,5R)-2-[4-(5-Ethoxy-2-fluoro-phenyl)pyrimidin-2-yl]-7-methyl-1,7-diazaspiro[4.4]nonan-6-one hydrochloride], the IC50 by setting is: under setting [1], 12.6 µM; under setting [2], 126 µM.

For `CCOc1ccc(F)c(-c2ccnc([C@@H]3CC[C@@]4(CCN(C)C4=O)N3)n2)c1` [Example 16, (2S,5S)-2-[4-(5-Ethoxy-2-fluoro-phenyl)pyrimidin-2-yl]-7-methyl-1,7-diazaspiro[4.4]nonan-6-one hydrochloride], the IC50 is 12.6 µM under setting [1] and 126 µM under setting [2].

Take `CCOc1ccc(F)c(-c2ccnc([C@H]3CC[C@@]4(CCN(C)C4=O)N3)n2)c1` [Example 17, (2R,5S)-2-[4-(5-Ethoxy-2-fluoro-phenyl)pyrimidin-2-yl]-7-methyl-1,7-diazaspiro[4.4]nonan-6-one hydrochloride]: the IC50 under setting [1] is 10 µM and the IC50 under setting [2] is 63.1 µM.

`CN1CC[C@@]2(CC[C@H](c3nccc(-c4cccc(OC(F)(F)F)c4)n3)N2)C1=O` [Example 18, (2R,5S)-7-Methyl-2-[4-[3-(trifluoromethoxy)phenyl]pyrimidin-2-yl]-1,7-diazaspiro[4.4]nonan-6-one hydrochloride]: the IC50 by setting is: under setting [1], 12.6 µM; under setting [2], 126 µM.

`CN1CC[C@@]2(CC[C@@H](c3nccc(-c4cccc(OC(F)(F)F)c4)n3)N2)C1=O` [Example 19, (2S,5S)-7-Methyl-2-[4-[3-(trifluoromethoxy)phenyl]pyrimidin-2-yl]-1,7-diazaspiro[4.4]nonan-6-one hydrochloride]: the IC50 under setting [1] was 20 µM and the IC50 under setting [2] was 200 µM.

In the case of `CN1CC[C@]2(CC[C@@H](c3nccc(-c4cccc(OC(F)(F)F)c4)n3)N2)C1=O` [Example 20, (2S,5R)-7-Methyl-2-[4-[3-(trifluoromethoxy)phenyl]pyrimidin-2-yl]-1,7-diazaspiro[4.4]nonan-6-one hydrochloride], the IC50 is, setting by setting: under setting [1], 25.1 µM; under setting [2], 200 µM.

For `CN1CC[C@]2(CC[C@H](c3nccc(-c4cccc(OC(F)(F)F)c4)n3)N2)C1=O` [Example 21, (2R,5R)-7-Methyl-2-[4-[3-(trifluoromethoxy)phenyl]pyrimidin-2-yl]-1,7-diazaspiro[4.4]nonan-6-one hydrochloride], the IC50 runs as follows: under setting [1], 15.8 µM; under setting [2], 200 µM.

As for `CC(C)Oc1ccc(-c2ccnc([C@H]3CC[C@]4(CCN(C)C4=O)N3)n2)cc1` [Example 23, (2R,5R)-2-[4-(4-Isopropoxyphenyl)pyrimidin-2-yl]-7-methyl-1,7-diazaspiro[4.4]nonan-6-one hydrochloride], the IC50 is 63.1 µM under setting [1] and 1580 µM under setting [2].

For `CC(C)Oc1ccc(-c2ccnc([C@@H]3CC[C@]4(CCN(C)C4=O)N3)n2)cc1` [Example 24, (2S,5R)-2-[4-(4-Isopropoxyphenyl)pyrimidin-2-yl]-7-methyl-1,7-diazaspiro[4.4]nonan-6-one hydrochloride], the IC50 was 20 µM under setting [1] and 158 µM under setting [2].

As for `CC(C)Oc1ccc(-c2ccnc([C@H]3CC[C@@]4(CCN(C)C4=O)N3)n2)cc1` [Example 25, (2R,5S)-2-[4-(4-Isopropoxyphenyl)pyrimidin-2-yl]-7-methyl-1,7-diazaspiro[4.4]nonan-6-one hydrochloride], the IC50 runs as follows: under setting [1], 7.94 µM; under setting [2], 50.1 µM.

As for `CC(C)Oc1ccc(-c2ccnc([C@@H]3CC[C@@]4(CCN(C)C4=O)N3)n2)cc1` [Example 26, (2S,5S)-2-[4-(4-Isopropoxyphenyl)pyrimidin-2-yl]-7-methyl-1,7-diazaspiro[4.4]nonan-6-one hydrochloride], the IC50 reads like this: under setting [1], 50.1 µM; under setting [2], 631 µM.
